Data set [1] can be described thus: Cytotoxicity against mouse J774A1 cells by MTT assay. It counts as cell-based. The settings on record: j774.a1.
A short description of data set [2]: Antiinflammatory activity in mouse J774A1 cells assessed as inhibition of LPS-stimulated NO production pretreated for 2 hrs followed by LPS addition measured after 18 hrs post LPS challenge by spectrophotometry. The following applies: J774.A1. Format: functional, cell-based.
For the next data set, the system named is J774.A1. Briefly: Antiinflammatory activity in mouse J774A1 cells assessed as inhibition of LPS-stimulated NO production pretreated at 10 uM for 2 hrs followed by LPS addition measured after 18 hrs post LPS challenge by spectrophotometry. It counts as functional, cell-based.

This is an account of results in ChEMBL document CHEMBL3351604, “Rhytidenones A-F, Spirobisnaphthalenes from Rhytidhysteron sp. AS21B, an Endophytic Fungus” (J Nat Prod, 2014).

The source made the active and inactive calls. No cut-off for these calls is given here.

In general, IC50 refers to the concentration that gives 50% inhibition.

Turning to `CO[C@@H]1CC(=O)C2=CCCC3(Oc4cccc5cccc(c45)O3)[C@@H]2[C@@H]1O`, the Activity entry in data set [1] was “Toxic”.
Consider `O=C1C=C[C@@H](O)[C@@H]2C1=CCCC21Oc2cccc3cccc(c23)O1`, for which the Activity entry in data set [1] is given as “Toxic”.
`O=C1C[C@@H](O)[C@@H](O)[C@@H]2C1=CCCC21Oc2cccc3cccc(c23)O1`: the 50% inhibitory concentration (IC50) in data set [2] is 3600 nM.
Turning to `O=C1C[C@H](O)[C@@H](O)[C@@H]2C1=CCCC21Oc2cccc3cccc(c23)O1`, in data set [2], the half-maximal inhibitory concentration (IC50) worked out at 310 nM.
Consider `OC1C=CC(O)C2C1C(O)CCC21Oc2cccc3cccc(c23)O1` (stereo not given), for which, in the data set on J774.A1, the inhibition entry was “inactive”.
